In experiment [1] the test system is Immortalized baby mouse kidney (iBMK) cells, non-activated (D3). Nature of the experiment: iBMK cell growth with 12a, non-activated (D3). It counts as cell-based. Here is the method:
(§1) FIG. 7: Bioactivity of farnesoic diacid. FIG. 7(a): E. coli NCM372 was grown to an optical density (OD600) of around 0.2, where either 12a in DMSO was added to final concentration of 10 μM (+) or DMSO was added (−). Three biological replicates are shown, and statistical significance using an unpaired t test is shown. FIG. 7(b): Immortalized baby mouse kidney (iBMK) cells were grown, either non-activated (D3) or Ras-activated (Ras). 12a in DMSO was added to final concentration of 10 μM (+) or DMSO was added (−). Three biological replicates are shown, and statistical significance using an unpaired t test is shown.
(§2) We supplemented cultures with 12a to a final concentration of 10 μM and monitored growth in both Escherichia coli (FIG. 6a) and mammalian cell lines (FIG. 6b). […] These findings provide evidence that farnesoic diacid and potentially our other newly discovered bifunctional terpenoids may have distinct bioactivities across diverse biological contexts, with applications in more efficient cultivation of microbes and selective activity against certain mammalian cells. As the longer bifunctional terpenoids (C25-C30) resemble oxylipin and polyunsaturated fatty acids, which are implicated in immunity and obesity, we reason that bioactivity may be related to lipid metabolism in mammalian systems that will be relevant in pharmaceutical contexts. […]

Experiment [2] relates to Immortalized baby mouse kidney (iBMK) cells, Ras-activated (Ras). The experiment can be described thus: iBMK cell growth with 12a, Ras-activated (Ras). It counts as cell-based. As for the experimental part:
as §1, §2

Experiment [3] has as its system E. coli NCM372. Nature of the experiment: E. coli growth with 12a supplementation. Format: cell-based, Escherichia coli. Here is the method: as §1
We supplemented cultures with 12a to a final concentration of 10 μM and monitored growth in both Escherichia coli (FIG. 6a) and mammalian cell lines (FIG. 6b). […] These findings provide evidence that farnesoic diacid and potentially our other newly discovered bifunctional terpenoids may have distinct bioactivities across diverse biological contexts, with applications in more efficient cultivation of microbes and selective activity against certain mammalian cells. As the longer bifunctional terpenoids (C25-C30) resemble oxylipin and polyunsaturated fatty acids, which are implicated in immunity and obesity, we reason that bioactivity may be related to lipid metabolism in mammalian systems that will be relevant in pharmaceutical contexts. Furthermore, the shorter bifunctional terpenoids (C15-C20) and their preceding biosynthetic intermediates resemble inhibitors of insect development, such as juvenile hormones, these molecules may serve as scaffolds for insecticide drug activity to target insect development. Further research on the novel molecules will illuminate more bioactivities on humans, human cells, research animals, plants, insects, and microorganisms.

[4] abbreviates: 12a 10 μM vs DMSO, 3 biological replicates.

Entries after “also recorded” stand apart in the source; their conditions may differ.

Turning to `C/C(=C\CC/C(C)=C/C(=O)O)CC/C=C(\C)C(=O)O` [12a, farnesoic diacid], the “proliferation / cell growth” value in experiment [1] (12a 10 μM) and in experiment [2] (12a 10 μM) was “decreases mammalian (cancer-like) cell growth; also recorded: modest decrease in proliferation” in each case. In addition, the “cancer-like cell lines grew slower with treatment” value in experiment [1] (setting [4]) and in experiment [2] (setting [4]) was around 10% throughout. Moreover, in experiment [3] (12a 10 μM in DMSO vs DMSO, added at OD600 around 0.2, 3 biological replicates), the “microbial cells grew faster with treatment” value is given as around 10%. Further, in experiment [3] (12a 10 μM vs DMSO), the “final optical density” value was “higher final optical density”. Besides, the “microbial growth rate / cell growth” value in experiment [3] (12a 10 μM vs DMSO) is “increases microbial cell growth; also recorded: increased microbial growth rate”. The “total biomass content” value in experiment [3] (farnesoic diacid treatment, FIG. 7) is “increased”.

(Values after patent US20250354182A1, “BIOSYNTHESIS OF BIFUNCTIONAL TERPENOIDS” (The Regents of the University of California, priority 2024, published 2025).)
